Data from PMC5583591, “The N-terminal Region of Nisin Is Important for the BceAB-Type ABC Transporter NsrFP from Streptococcus agalactiae COH1” (Frontiers in Microbiology, 2017).

Tests used:
Assay type in all cases: cell-based, Lactococcus lactis
NZ9000NsrFH202AP = assay: Growth inhibition (IC50), strain expressing ATP-hydrolysis-deficient NsrFH202AP; conditions: IC50 against NZ9000NsrFH202AP divided by IC50 against NZ9000Cm
Excerpt: (§1) The nsrfp gene from S. agalactiae COH1 was amplified from the chromosomal DNA using two primers (NsrFP_for 5′-[…]-3′ and NsrFP_rev 5′-[…]-3) and ligated into pIL-SV (E. coli–L. lactis shuttle vector) ([Alkhatib et al., 2014b]). The point mutation NsrFH202A was introduced by a standard mutagenesis protocol using the following primers: forward: 5′-[…]-3′; reverse: 5′-[…]-3′. The resulting plasmid was verified by sequencing and transformed into the L. lactis strain NZ9000 for expression ([Holo and Nes, 1989]) and the corresponding strains were termed NZ9000NsrFP and NZ9000NsrFH202AP. An empty vector pIL-SVCm was also transformed into the NZ9000 strain and was used as a control (that excludes any possible effect of induction of the plasmid), and this strain was called NZ9000Cm. The expression of the nsrfp gene is regulated by the TCS NisR/NisK present in the NZ9000 strain genome.
Cells from the different expressing strains were grown overnight in GM17 supplemented with 5 μg/ml chloramphenicol in presence of 1 ng/ml nisin. The diluted cells (final OD584 was 0.1) were incubated with a serial dilution of nisin in a 96-well plate. The total volume in each well was 200 μl, consisting of 50 μl nisin and 150 μl GM17 containing the corresponding L. lactis strain.
The plate was incubated at 30°C. After 5 h, the optical density was measured at 584 nm via 96-well plate reader BMG. The normalized optical density was plotted against the logarithm of the nisin concentration in order to calculate the IC50 of nisin and the data was evaluated using the following equation (Eq. 1):
y=ODmin+ODmax−ODmin/1+10^(log(IC50)−x) ×p
The ODmax value describes the normalized optical density value where no nisin was added, while the ODmin value corresponds to the normalized optical density of the cells grown in the highest nisin concentrations. The y represents the resulted normalized optical density value and x represents the logarithmic of the nisin concentration added. The IC50 value is the concentration of nisin where the growth of the L. lactis strain is inhibited by 50% ([Abts et al., 2011]).
We determined the IC50 value of nisin against the NZ9000Cm sensitive strain as well as the strain NZ9000NsrFP and NZ9000NsrFH202AP. By dividing these two values the fold of resistance is obtained. […] Dividing these two values results in a fold of resistance of 16.7.

NZ9000NsrFP = assay: Growth inhibition (IC50), strain expressing NsrFP; conditions: IC50 against NZ9000NsrFP divided by IC50 against NZ9000Cm
Excerpt: as §1, with “genome. […]” for “genome.”
(§2) The plate was incubated at 30°C. After 5 h, the optical density was measured at 584 nm via 96-well plate reader BMG. The normalized optical density was plotted against the logarithm of the nisin concentration in order to calculate the IC50 of nisin and the data was evaluated using the following equation (Eq. 1): […]
We determined the IC50 value of nisin against the NZ9000Cm sensitive strain as well as the strain NZ9000NsrFP and NZ9000NsrFH202AP. […]

NZ9000Cm = assay: Growth inhibition (IC50), nisin-sensitive control strain with empty vector; conditions: product of NSR cleavage (last six amino acids cleaved off)
Excerpt: as §1
Cells from the different expressing strains were grown overnight in GM17 supplemented with 5 μg/ml chloramphenicol in presence of 1 ng/ml nisin. […]
as §2

Structure (SMILES)	Fold of resistance NZ9000NsrFH202AP (NZ9000NsrFH202AP) [fold]	Fold of resistance NZ9000NsrFP (NZ9000NsrFP) [fold]	Fold lower activity compared with nisin (NZ9000Cm) [fold]
C=C1NC(=O)[C@H]([C@@H](C)CC)NC(=O)[C@H](NC(=O)/C(=C/C)NC(=O)[C@@H](N)[C@@H](C)CC)CSC[C@@H](C(=O)N[C@H]2C(=O)N3CCC[C@H]3C(=O)NCC(=O)N[C@H](C(=O)N[C@@H](CCCCN)C(=O)N[C@H]3C(=O)NCC(=O)N[C@@H](C)C(=O)N[C@@H](CC(C)C)C(=O)N[C@@H](CCSC)C(=O)NCC(=O)N[C@H](C(=O)N[C@@H](CC(N)=O)C(=O)N[C@@H](CCSC)C(=O)N[C@@H](CCCCN)C(=O)O)CS[C@H]3C)CS[C@H]2C)NC(=O)[C@H](CC(C)C)NC1=O [Nisin1-22]	0.7	–	–
C/C=C(\NC(=O)[C@H](CCCCN)NC(=O)[C@H](C)NC(=O)[C@@H]1CS[C@@H](C)[C@@H](NC(=O)[C@@H]2CSC[C@@H](NC(=O)[C@H](C)NC(=O)[C@@H](N)[C@@H](C)CC)C(=O)N[C@@H](CCCCN)C(=O)N[C@@H](Cc3ccccc3)C(=O)N[C@@H](CC(C)C)C(=O)N2)C(=O)N2CCC[C@H]2C(=O)NCC(=O)N1)C(=O)NCC(=O)N[C@@H]1CSC[C@@H]2NC(=O)[C@H](Cc3ccc(O)cc3)NC(=O)[C@@H](CS/C=C\NC2=O)NC(=O)[C@H](CC(N)=O)NC(=O)[C@H](Cc2ccccc2)NC1=O [Gallidermin]	0.9	12.5	–
C=C1NC(=O)[C@H]([C@@H](C)CC)NC(=O)[C@H](NC(=O)/C(=C/C)NC(=O)[C@@H](N)[C@@H](C)CC)CSC[C@@H](C(=O)N[C@H]2C(=O)N3CCC[C@H]3C(=O)NCC(=O)N[C@H](C(=O)N[C@@H](CCCCN)C(=O)N[C@H]3C(=O)NCC(=O)N[C@@H](C)C(=O)N[C@@H](CC(C)C)C(=O)N[C@@H](CCSC)C(=O)NCC(=O)N[C@H](C(=O)N[C@@H](CC(N)=O)C(=O)N[C@@H](CCSC)C(=O)N[C@@H](CCCCN)C(=O)N[C@H]4C(=O)N[C@@H](C)C(=O)N[C@H]5C(=O)N[C@@H](CS[C@H]4C)C(=O)N[C@@H](Cc4c[nH]cn4)C(=O)N[C@H](C(=O)O)CS[C@H]5C)CS[C@H]3C)CS[C@H]2C)NC(=O)[C@H](CC(C)C)NC1=O [Nisin1-28]	0.4	–	32
C=C(NC(=O)[C@@H](NC(=O)[C@H](CCCCN)NC(=O)[C@@H](NC(=O)[C@H](CO)NC(=O)[C@@H]1CS[C@@H](C)[C@H]2NC(=O)[C@H](C)NC(=O)[C@H](NC(=O)[C@H](CCCCN)NC(=O)[C@H](Cc3ccc(O)cc3)NC(=O)[C@H](CC(N)=O)NC(=O)[C@@H]3CS[C@@H](C)[C@@H](NC(=O)[C@H](CCCCN)NC(=O)[C@@H]4CS[C@@H](C)[C@@H](NC(=O)[C@@H]5CSC[C@@H](NC(=O)/C(=C/C)NC(=O)[C@@H](N)Cc6ccccc6)C(=O)N[C@@H]([C@@H](C)CC)C(=O)NC(=C)C(=O)N[C@@H](CCSC)C(=O)N5)C(=O)N5CCC[C@H]5C(=O)NCC(=O)N4)C(=O)NCC(=O)N[C@@H](C)C(=O)N[C@@H](CC(C)C)C(=O)N[C@@H](CCSC)C(=O)N/C(=C\C)C(=O)N3)[C@H](C)SC[C@H](NC2=O)C(=O)N[C@@H](Cc2c[nH]cn2)C(=O)N1)[C@@H](C)CC)C(C)C)C(=O)N[C@@H](CCCCN)C(=O)O [Nisin H]	1.1	12.3	–
